From publication PMC6389962 (Nature Communications, 2019)

Assays:
db/db mice = assay: Blood glucose study in db/db mice; type: in vivo, mouse; conditions: n = 5, 200 μg kg−1 (50 nmol kg−1) intraperitoneal, fed
From the text: Data are mean ± SEM. […] Source data are provided as a Source Data file

mouse GLP-1 receptor [1] = target: T1, mouse GLP-1 receptor (Mus musculus, UniProt O35659); assay: cell-based
T1 sequence (O35659 22-463): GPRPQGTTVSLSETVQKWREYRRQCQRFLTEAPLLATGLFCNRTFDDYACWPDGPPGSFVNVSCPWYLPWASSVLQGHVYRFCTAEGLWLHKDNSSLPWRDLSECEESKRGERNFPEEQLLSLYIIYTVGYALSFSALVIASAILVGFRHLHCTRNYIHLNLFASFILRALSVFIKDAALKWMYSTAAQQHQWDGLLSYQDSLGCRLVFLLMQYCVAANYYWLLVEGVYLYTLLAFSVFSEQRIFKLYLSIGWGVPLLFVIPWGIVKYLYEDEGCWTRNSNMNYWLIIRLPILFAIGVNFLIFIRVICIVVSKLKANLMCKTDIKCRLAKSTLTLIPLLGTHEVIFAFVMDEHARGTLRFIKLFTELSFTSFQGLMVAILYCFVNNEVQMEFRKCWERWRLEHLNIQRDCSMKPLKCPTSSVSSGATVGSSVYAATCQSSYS

[2] = NEP 24.11 degradation assay; conditions: NEP 24.11 (isolated enzyme), pH 8, % remaining analogue, NEP 24.11 20 μg mL−1, […], pH 8.0, 20 °C, HPLC; time 6 h; replicate 1
Procedure: Stock solutions of the oligomers were prepared at a concentration of 400 µM in a solution of 50 mM HEPES buffer, 50 mM NaCl, 0.05% Tween-80, pH 8.0. Stock solution of NEP 24.11 was prepared at a concentration of 100 µg mL^−1 in water. Stability of oligomers to NEP 24.11 was assessed by conducting protease reaction in a 96-well plates at 20 °C. […] Each compound was also incubated in the absence of the enzyme (12 µL of HEPES buffer and 38 µL of oligomer). […] A portion of the quenched reaction solution was analysed by HPLC. The time course of peptide degradation was determined by integrating the area of each peak in a series of HPLC traces.

in vitro = conditions: mouse, plasma
Procedure: The oligomer was then diluted 1/50 with a solution of plasma/PBS pH 7.4 (1:1) to afford a final concentration of 5 µM and incubated at 37 °C (4 µL of the stock solution was diluted with 196 µL of plasma/PBS, pH 7.4, 1:1). Each compound was also incubated in the absence of plasma (196 µL of H2O/PBS, pH 7.4, 1:1). At the indicated time (20 min and 60 min) an aliquot of 70 µL was removed from each experimental reaction and pipetting into 175 µL of acetonitrile at 0 °C to quench the reaction (t = 0 min was determined using the reaction without plasma). The samples were frozen at –80 °C before analysis. The frozen samples were defrosted, stirred with a vortex 5 min and finally centrifuged 5 min at 16 °C (1500 × g). The supernatant was analysed by LC-MS. The time course of oligomer degradation was determined by integrating the area of the peak in the extracted ion chromatogram.
Supplementar y Figur e 2 : Mouse plasma degradation assay. […] Data are
mean ± SEM, n = 4. Source data are provided as a Source Data file (T able 2 tab).
Supplementar y Figur e 3.
Data are mean ± SEM, n = 3.
Source data are provided as a Source Data file […]

mouse GLP-1 receptor [3] = target: T1, mouse GLP-1 receptor
normal mice (C57BL/6J) = assay: Blood glucose study in normal fed mice; type: in vivo, mouse; conditions: normal fed C57BL/6J mice, n = 3, 5 μg per mouse (50 nmol kg−1) i.v., monitored 6 h
Procedure: In the first study, we evaluated the effect of the analogues on the blood glucose concentration of normal mice (Fig. 3). The fed mice were treated with the analogues and their blood glucose concentration was monitored before and after dosing for 6 h. […] Indeed, a decrease of blood glucose concentration is observed after 30 min and the effect is preserved for 4 h after dosing.
Fig. 3 Blood glucose study in mice. a–c Blood glucose concentration in normal mice (C57BL/6J, male, 20–25 g, n = 3) before and after dosing: 5 μg per mouse (50 nmol kg^−1) i.v. Formulation: 20 μg mL^−1 in PBS 1×. The dosing was done at T0. Data are mean ± SEM. […] Source data are provided as a Source Data file
After the acclimation period (at least 5 days), mice (male C57BL/6J mice (Charles River laboratories) 8 weeks old, 20–25 g) were randomized into 10 groups (n = 3 per group) according to their body weight. They were acutely treated via i.v. route at 10 am (5 µg per mouse). Blood glucose was measured before dosing and at 30 min, 1, 2, 4, 6 h after dosing in fed conditions.

CCCCCCCCCCCCCCCC(=O)N[C@@H](CCC(=O)NCCCC[C@H](NC(=O)[C@H](C)NC(=O)[C@H](C)NC(=O)[C@H](CCC(N)=O)NC(=O)CNC(=O)[C@H](CCC(=O)O)NC(=O)[C@H](CC(C)C)NC(=O)[C@H](Cc1ccc(O)cc1)NC(=O)[C@H](CO)NC(=O)[C@H](CO)NC(=O)[C@@H](NC(=O)[C@H](CC(=O)O)NC(=O)[C@H](CO)NC(=O)[C@@H](NC(=O)[C@H](Cc1ccccc1)NC(=O)[C@@H](NC(=O)CNC(=O)[C@H](CCC(=O)O)NC(=O)[C@H](C)NC(=O)[C@@H](N)Cc1c[nH]cn1)[C@@H](C)O)[C@@H](C)O)C(C)C)C(=O)N[C@@H](CCC(=O)O)C(=O)N[C@@H](Cc1ccccc1)C(=O)N[C@H](C(=O)N[C@@H](C)C(=O)N[C@@H](Cc1c[nH]c2ccccc12)C(=O)N[C@@H](CC(C)C)C(=O)N[C@H](C(=O)N[C@@H](CCCNC(=N)N)C(=O)NCC(=O)N[C@@H](CCCNC(=N)N)C(=O)NCC(=O)O)C(C)C)[C@@H](C)CC)C(=O)O [liraglutide]
activity on blood glucose 48 h after a single dose (db/db mice): no more significant activity

CC[C@H](C)[C@H](NC(=O)[C@H](Cc1ccccc1)NC(=O)[C@H](CCC(=O)O)NC(=O)[C@H](CCCCN)NC(=O)[C@H](C)NC(=O)[C@H](C)NC(=O)[C@H](CCC(N)=O)NC(=O)CNC(=O)[C@H](CCC(=O)O)NC(=O)[C@H](CC(C)C)NC(=O)[C@H](Cc1ccc(O)cc1)NC(=O)NC[C@H](C)NC(=O)NC[C@H](C)NC(=O)N[C@@H](CNC(=O)[C@H](CO)NC(=O)[C@@H](NC(=O)[C@H](Cc1ccccc1)NC(=O)[C@@H](NC(=O)CNC(=O)[C@H](CCC(=O)O)NC(=O)CNC(=O)[C@@H](N)Cc1c[nH]cn1)[C@@H](C)O)[C@@H](C)O)CC(=O)O)C(=O)N[C@@H](C)C(=O)N[C@@H](Cc1c[nH]c2ccccc12)C(=O)N[C@@H](CC(C)C)C(=O)N[C@H](C(=O)N[C@@H](CCCCN)C(=O)NCC(=O)N[C@@H](CCCNC(=N)N)C(=O)NCC(N)=O)C(C)C [compound 2, GG2[D^uαA^uA^u]^9-12]
EC50 (mouse GLP-1 receptor [1]): 13 nM
Emax (mouse GLP-1 receptor [1]; read-out: Top (best-fit value), variable slope four-parameter fit, unconstrained, 14: experiment 1): 77.7%
remaining at 6 h, […] [2]: 39.2%
half-life (in vitro; pH 7.4): 17 min
remaining at 20 min, 5 µM (in vitro; pH 7.4, % remaining analogue): 38%
remaining at 1 h, 5 µM (in vitro; pH 7.4, % remaining analogue): 21.2%
LogEC50 (best-fit value) (mouse GLP-1 receptor [3]): -7.897
Potency (%), percentage of potency compare to GLP-1-G^2 (mouse GLP-1 receptor [3]; cAMP production, from EC50): 2%
effect on blood glucose concentration (normal mice (C57BL/6J)): showed no activity
